These results are taken from article PMC3433420 (PLoS ONE, 2012).

For orientation: Kd means the constant that tells how readily two partners part at equilibrium.

One experiment deals with T1, PIK3R3-N SH2 domain (Homo sapiens, UniProt Q92569).
T1 construct: 6X His; thioredoxin; made in house; host or cells: E. coli BL21(DE3)pLysS
In words: FP saturation binding assay. The conditions noted are these: high-confidence ErbB interactions. As to the method: (§1) (See Figure 1A) Rhodamine-labeled peptides were dissolved in assay buffer (20 mM HEPES, 100 mM KCl, 0.1% Tween-20, 5 mM DTT, pH 7.8), diluted to a concentration of 20 nM, and plated into black 384-well plates (Corning, Corning, NY) at 5 µL/well using a Perkin Elmer EP3 pipetting workstation (V&P Scientific, Inc., San Diego, CA). SH2, PTB, and thioredoxin control proteins were plated into the first column of 2 mL 96-well plates (Corning) at a concentration of 20 µM and serially diluted 1∶2 into freezing buffer (300 mM NaCl, 50 mM Na2PO4, pH 8, 20% glycerol v/v) eleven times using a Tecan Freedom EVO 100 workstation (Tecan, Männedorf, Switzerland). For the interaction assay, 5 µL of each of the twelve protein concentrations was added to the peptide-containing 384-well plates via the EP3 resulting in a protein dilution range of 0.002–10 µM and a final volume of 10 µL; peptide concentration was fixed at 10 nM. Peptide/protein samples were incubated for 20 minutes at room temperature in the dark and fluorescence polarization (FP) was measured in an Analyst GT multimode reader (Molecular Devices, Sunnyvale, CA) with excitation and emission wavelengths of 530 nm and 555 nm, respectively. Experimental values were output as millipolarization (mP) units and imported into MATLAB (The MathWorks, Inc., Natick, MA) in which equation (1) was used to determine dissociation constants (KDs) for each protein/peptide pairing by least squares nonlinear regression. [drawing 1] (1)
(§2) FP was described by the following equation: P=Iparallel-IperpendicularIparallel+Iperpendicular, where “P” denotes polarization, and “I” denotes the fluorescent intensity relative to the plane of incident light. Experimental values were output as millipolarization (mP) units and imported into MATLAB where the following equation was used to determine dissociation constants (KDs) for each protein/peptide pairing by least squares nonlinear regression:
(§3) Pobs=Pmax∙ProteinKD+Protein [picture] (1)
(§4) Peptides were initially tested for systematic plate effects across protein dilutions and nonspecific binding to thioredoxin by linear regression analysis and any effects were regressed out. The median baseline control polarization value for each plate was then subtracted from each data point to make each binding curve intersect at zero. Plates with excessive variation in baseline control polarizations on both a global and run-specific manner (Dixon’s Q test, p < 0.05) were excluded from further analysis. Outliers in each binding curve were identified and removed using an iterative procedure as follows. The residuals for each fit were used to calculate a global standard deviation of the residuals (GSDR) for each concentration of SH2 domain over all interactions, and individual data points with residuals < or > two GSDR from the global mean residual were flagged as outliers. The outlier with the largest residual from each interaction was removed and nonlinear regression was again performed. This procedure was repeated if additional outliers were identified for an interaction, discarding the interaction if the number of outliers exceeded three. […] In order to further control our false positive rate against hidden confounding variables producing binding artifacts, we sought to determine whether there was a significant relationship between the strength of an interaction and its technical replication rate at our stringent significance and filtering thresholds. We performed logistic regression on the proportion of successful replicates for each interaction query against KD for all interactions (Figure S15A). […] This is related to the observation that the majority of interactions detected by FP are tight (Figure S15B). With this logit model, we assigned a probability to each peptide-protein interaction in our data by using a binomial proportions test to compare the observed versus the expected replication rate at the particular KD of that interaction (Table S4). […]

Experiment [1] has as its target T2, PLCG1-NC tandem SH2 domains (Homo sapiens, UniProt P19174).
T2 construct: the tandem protein was included in our analysis with all internal amino acids linking the domains; 6X His; thioredoxin; made in house; host or cells: E. coli BL21(DE3)pLysS
T2 sequence (P19174 550-756 limits assumed): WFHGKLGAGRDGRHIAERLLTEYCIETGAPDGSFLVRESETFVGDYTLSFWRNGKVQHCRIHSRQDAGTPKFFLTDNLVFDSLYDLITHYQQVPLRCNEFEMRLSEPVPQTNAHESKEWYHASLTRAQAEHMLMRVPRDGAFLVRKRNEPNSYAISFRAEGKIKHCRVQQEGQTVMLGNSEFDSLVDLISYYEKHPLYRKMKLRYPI
Kind of experiment: FP saturation binding assay. The conditions noted are these: Protein PLCG1-NC; FP saturation binding, high-confidence ErbB interactions; mean over replicate hits. As to the method: as §1, with “Peptide/protein samples were incubated for 20 minutes at room temperature in the dark and fluorescence polarization (FP) was measured in an Analyst GT multimode reader (Molecular Devices, Sunnyvale, CA) with excitation and emission wavelengths of 530 nm and 555 nm, respectively.” left out
as §2, §3
Peptides were initially tested for systematic plate effects across protein dilutions and nonspecific binding to thioredoxin by linear regression analysis and any effects were regressed out. The median baseline control polarization value for each plate was then subtracted from each data point to make each binding curve intersect at zero. Plates with excessive variation in baseline control polarizations on both a global and run-specific manner (Dixon’s Q test, p < 0.05) were excluded from further analysis. Outliers in each binding curve were identified and removed using an iterative procedure as follows. The residuals for each fit were used to calculate a global standard deviation of the residuals (GSDR) for each concentration of SH2 domain over all interactions, and individual data points with residuals < or > two GSDR from the global mean residual were flagged as outliers. The outlier with the largest residual from each interaction was removed and nonlinear regression was again performed. This procedure was repeated if additional outliers were identified for an interaction, discarding the interaction if the number of outliers exceeded three. […] In order to further control our false positive rate against hidden confounding variables producing binding artifacts, we sought to determine whether there was a significant relationship between the strength of an interaction and its technical replication rate at our stringent significance and filtering thresholds. We performed logistic regression on the proportion of successful replicates for each interaction query against KD for all interactions (Figure S15A). […] “High-confidence” FP interactions are defined as those having 1 - P(Observed Replication Rate | Expectation) > 0.5 and that have replicated at least twice across independent FP runs. […] The compiled FP data were organized into heatmaps generated by MATLAB and relative binding strength (µM). Peptides without at least one positive hit were classified as “no interaction” if there was no homologous sequence (i.e. identical at the +1 to +4 positions relative to the phosphotyrosine) that produced a positive interaction within the ErbB receptor family.

Experiment [2] addresses PIK3R2-NC tandem SH2 domains (Homo sapiens, UniProt O00459). Kind of experiment: FP saturation binding assay.
For another experiment, the target named is T3, PIK3R1-N SH2 domain (Homo sapiens, UniProt P27986).
T3 construct: thioredoxin; made in house; host or cells: E. coli BL21(DE3)pLysS
In words: biochemical. The experiment is classed as binding. The settings on record: Protein PIK3R1-N; FP saturation binding, high-confidence ErbB interactions; mean over replicate hits.

For experiment [3], the target named is T4, PIK3R3-NC tandem SH2 domains (Homo sapiens, UniProt Q92569).
T4 construct: the tandem protein was included in our analysis with all internal amino acids linking the domains; 6X His; thioredoxin; made in house; host or cells: E. coli BL21(DE3)pLysS
In words: FP saturation binding assay. The settings on record: protein PIK3R3-NC; FP, high-confidence ErbB interactions; mean of replicate hits. The protocol: as §1, §2, §3, §4

Experiment [4] deals with 93 human SH2 domains and 2 phosphotyrosine binding (PTB) domains. Kind of experiment: FP saturation binding assay, whole domain panel (protein named per line or not at all). The settings on record: for interaction with the SH2/PTB domain panel: KD <= 20 µM counted as interaction; for SH2 domains found to interact: high-confidence interactions (Table S11, Figure S14). The protocol: as §1
To scale up the number of interaction measurements while minimizing variation introduced by human intervention, we utilized an automated robotic platform (Figure 1A; see experimental procedures and Supplementary Methods) to transfer, incubate, and measure the fluorescence polarization (FP) induced from interactions of a titration series of SH2 domains with synthetic rhodamine-labeled ErbB phosphopeptides. Experimental values were output as millipolarization (mP) units and equation (1) was used to fit apparent midpoint dissociation constants (KDs) for each protein/peptide pair using non-linear regression (see experimental procedures).
For this interaction analysis, we synthesized and queried the interaction of phosphopeptides corresponding to 89 of 92 ErbB family intracellular tyrosines with 93 SH2 domains. Because nine peptide sequences share 100% identity between the receptors in the 4 to 7 amino acids C-terminal to the phosphorylated tyrosine, our peptide set consisted of 81 phosphopeptides corresponding to the 89 unique tyrosine containing sequences (Table S2). This peptide set represents a 50% increase over the three PM studies performed to date. We were therefore able to obtain a more systematic and unbiased view of the relative SH2 domain recruitment potential of each receptor. Although most ErbB receptor auto-phosphorylation sites have been detected frequently by mass spectrometry because of their high relative modification stoichiometry, non-auto-phosphorylation sites have been reported less frequently in the literature (Table S3). We reasoned that many physiologically relevant and uncharacterized ErbB tyrosines of low phosphorylation stoichiometry may exist and that our comprehensive interaction analysis might implicate their importance in mediating physiological interactions. We tested the majority of interactions (7099/8160 (87.0%); Figure S3) three or more times and reported standard error for all interactions that were detected in at least three FP runs (Table S4). […] Analysis of this polarization data may be useful for inferring how SH2 proteins bind to different peptide sequences. Larger proteins and proteins binding closer to the N-terminal rhodamine tag of a given peptide would be expected to induce higher maximal polarization (the calculated maximal polarization value at infinite protein concentration) than proteins binding farther from the tag. In addition to phosphopeptides, we queried a representative set of 27 non-phosphopeptides against the entire domain set. […]

Residues, ends and D or L forms follow the SMILES beside them.

T3 sequence (P27986 333-428 limits assumed): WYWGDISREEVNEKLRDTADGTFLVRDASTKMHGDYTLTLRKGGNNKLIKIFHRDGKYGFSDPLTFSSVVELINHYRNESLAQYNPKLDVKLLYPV
Chain of PIK3R2-NC tandem SH2 domains (O00459 330-716 limits assumed): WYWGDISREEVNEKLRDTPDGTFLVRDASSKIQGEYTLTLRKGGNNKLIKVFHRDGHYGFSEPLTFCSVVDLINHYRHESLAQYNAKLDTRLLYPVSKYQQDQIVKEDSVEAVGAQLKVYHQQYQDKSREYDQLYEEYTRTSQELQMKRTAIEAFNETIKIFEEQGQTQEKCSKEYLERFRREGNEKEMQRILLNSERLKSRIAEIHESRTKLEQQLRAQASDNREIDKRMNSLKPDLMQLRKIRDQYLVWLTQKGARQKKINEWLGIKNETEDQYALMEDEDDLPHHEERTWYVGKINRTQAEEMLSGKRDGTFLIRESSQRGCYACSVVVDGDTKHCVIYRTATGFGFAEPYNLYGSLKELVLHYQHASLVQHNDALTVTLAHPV

Regarding `CC(C)C[C@H](NC(=O)CNC(=O)[C@H](CC(C)C)NC(=O)[C@H](Cc1ccc(OP(=O)(O)O)cc1)NC(=O)[C@H](CCC(=O)O)NC(=O)[C@@H]1CCCN1C(=O)[C@H](CC(N)=O)NC(=O)[C@@H](N)CCC(=O)O)C(=O)N[C@@H](CC(=O)O)C(=O)N[C@H](C(=O)N1CCC[C@H]1C(=O)N[C@H](C(=O)N[C@@H](CC(=O)O)C(=O)O)C(C)C)C(C)C` [ErbB2 1248 13-mer] (HELM PEPTIDE1{E.N.P.E.[O=C([C@H](Cc1ccc(OP(=O)(O)O)cc1)N[*:1])[*:2]].L.G.L.D.V.P.V.D}$$$$V2.0), the Kd amounted to 11200 nM at PIK3R3-N SH2 domain (Protein PIK3R3-N, FP saturation binding, mean over replicate hits); 9970 nM in experiment [1]; 9900 nM in experiment [2].

Take `CSCC[C@H](NC(=O)[C@@H]1CCCN1C(=O)[C@H](CCSC)NC(=O)[C@H](Cc1ccc(OP(=O)(O)O)cc1)NC(=O)CNC(=O)[C@H](CO)NC(=O)[C@H](CO)NC(=O)[C@@H]1CCCN1)C(=O)N[C@@H](CC(N)=O)C(=O)N[C@@H](CCC(N)=O)C(=O)NCC(=O)N[C@@H](CC(N)=O)C(=O)N[C@@H](CC(=O)O)C(=O)O` [ErbB3 1054 13-mer] (HELM PEPTIDE1{P.S.S.G.[O=C([C@H](Cc1ccc(OP(=O)(O)O)cc1)N[*:1])[*:2]].M.P.M.N.Q.G.N.D}$$$$V2.0): the figures for the dissociation constant Kd (on PIK3R1-N SH2 domain; in experiment [3]) were 1800 nM and 260 nM, respectively.

Take `CSCC[C@H](NC(=O)[C@H](Cc1ccc(O)cc1)NC(=O)[C@H](CCC(=O)O)NC(=O)[C@H](Cc1ccc(OP(=O)(O)O)cc1)NC(=O)[C@H](CCC(=O)O)NC(=O)[C@H](CCC(=O)O)NC(=O)[C@H](CC(=O)O)NC(=O)[C@@H](N)CCC(=O)O)C(=O)N[C@@H](CC(N)=O)C(=O)N[C@@H](CCCNC(=N)N)C(=O)N[C@@H](CCCNC(=N)N)C(=O)N[C@@H](CCCNC(=N)N)C(=O)N[C@@H](CC(=O)O)C(=O)O` [ErbB3 1197 13-mer] (HELM PEPTIDE1{E.D.E.E.[O=C([C@H](Cc1ccc(OP(=O)(O)O)cc1)N[*:1])[*:2]].E.Y.M.N.R.R.R.D}$$$$V2.0): the Kd at PIK3R3-N SH2 domain (protein PIK3R3-N, FP, mean of replicate hits) was 1320 nM; in experiment [3], 200 nM.

As to “DAEEpYLVPQAFN [ErbB4 pY1022, N-terminally rhodamine-labeled 13-mer phosphopeptide]”, the “interaction with the SH2/PTB domain panel” value in experiment [4] was “did not produce any interaction hits”.

With “DVWSpYGVTIWELd [ErbB4 pY906, N-terminally rhodamine-labeled 13-mer phosphopeptide]”, in experiment [4], the “interaction with the SH2/PTB domain panel” value is given as “reproducibly interacted at high affinity with many SH2 domains”; the “SH2 domains found to interact” value is “interacted with ZAP70, GRB7, and GRB10 SH2 domains”.

“KIRKpYTMRRLLQd [ErbB2 pY685, N-terminally rhodamine-labeled 13-mer phosphopeptide]”: in experiment [4], the “interaction with the SH2/PTB domain panel” value is listed as “reproducibly interacted at high affinity with many SH2 domains” and the “SH2 domains found to interact” value is given as “interacted with SOCS family SH2 domains”.
